Experimental data as given in patent US20210145838A1, “SELECTIVE PDE4D INHIBITORS AGAINST DEMYELINATING DISEASES” (Universiteit Hasselt, priority 2018, published 2021).

Experiments:
[1] = test system: mice with EAE; assay: Experimental autoimmune encephalomyelitis (EAE) clinical score; assay type: in vivo, mouse; conditions: prophylactic, 27 days
Method: Fifty-six ten-weeks-old female C57bl6 mice were immunized in the flank and neck with 200 μg/mouse MOG35-55 peptide (Hooke) emulsified in Complete Freund's Adjuvant containing Mycobacterium tuberculosis. Immediately after immunization, treatment was started and lasted for 27 days. Treatment consisted of twice a day a s.c. injection with a 1% DMSO in 0.5% methylcellulose solution, roflumilast (0.3 mg/kg or 3 mg/kg in vehicle) or gebr32a (0.3 mg/kg in vehicle). All animals were sacrificed at day 27. Animals were neurologically scored for clinical signs on a daily basis using the following scores: 0=normal behavior, 0.5=distal limp tail, 1=complete limp tail, 2=limp tail and hind leg inhibition, 2.5=limp tail and weakness of hind legs, 3=limp tail and dragging of hind legs, 3.5=limp tail, complete paralysis of hind legs and animal is unable to right itself when placed on its side, 4=limp tail, complete hind leg paralysis and partial front leg paralysis, 4.5=limp tail, complete hind leg paralysis, partial front leg paralysis and no movement around the cage, 5=death.
Ten-weeks-old female C57bl6 mice (n=56) were immunized in the flank and neck with 200 μg/mouse MOG35-55 peptide (Hooke) emulsified in Complete Freund's Adjuvant containing Mycobacterium tuberculosis. Immediately after immunization, treatment was started and lasted for 27 days. […]

[2] = test system: cuprizone demyelinated mice; assay: In vivo remyelination in cuprizone-demyelinated mice (MBP IHC, mbp qPCR, TEM G ratio); set-up: species or system mouse
Excerpt: (§1) FIG. 8: MBP expression in the corpus callosum upon PDE4 inhibition. A) IHC; B no IHC. Forty-two eleven-weeks-old male C57bl6 mice were either subjected to a cuprizone treatment to induce demyelination (n=32) or left without treatment (control; n=10) for six weeks (day 0-42). From day 40 till day 49, the control mice and part of the cuprizone-treated mice (vehicle; n=10) received a vehicle treatment, receiving a s.c. injection with a 1% DMSO in 0.5% methylcellulose solution twice a day. The remaining cuprizone-treated mice received a roflumilast treatment (roflu 1 mg/kg (n=11) or roflu 3 mg/kg (n=11) in vehicle) twice a day from day 40-49. All animals were sacrificed at day 49. Brains were isolated at anteroposterior coordinates from −0.3 to −1.5 mm was cut in the midsagittal plane and used for slicing and immunohistochemistry (IHC) against MBP.
as §1, with “9:” for “8:”, “hippocampus” for “corpus callosum”, “inhibition.” for “inhibition. A) IHC; B no IHC.”, “immunohistochemistry” for “immunohistochemistry (IHC)”
FIG. 10: MBP expression in the corpus callosum upon PDE4 inhibition. C57bl6 mice were either subjected to a cuprizone treatment to induce demyelination or left without treatment for six weeks (day 0-42). From day 40 till day 49, the control mice and part of the cuprizone-treated mice received a vehicle treatment, receiving a s.c. injection with a 1% DMSO in 0.5% methylcellulose solution twice a day. The remaining cuprizone-treated mice received a roflumilast treatment (roflu 1 mg/kg or roflu 3 mg/kg in vehicle) twice a day from day 40-49. All animals were sacrificed at day 49. The left part of the corpus callosum at bregma Y-Z was used for TEM and subsequent G ratio measurement. G ratio is the ratio of the inner axonal diameter to the total outer diameter representing myelination of axons (e.g. a higher G ratio represents a demyelination). […] Data are expressed as mean±SEM with. (*p<0.05, **p<0.01, ***p<0.001). Control (n=5), vehicle (n=5), roflu 1 mg/kg (n=7), and roflu 3 mg/kg (n=9).
FIG. 12: MBP expression in the corpus callosum upon PDE4 inhibition. Thirty-six eleven-weeks-old male C57bl6 mice were either subjected to a cuprizone treatment to induce demyelination (n=27) or left without treatment (control; n=9) for six weeks (day 0-42). From day 40 till day 49, the control mice and part of the cuprizone-treated mice (vehicle; n=9) received a vehicle treatment, receiving a s.c. injection with a 1% DMSO in 0.5% methylcellulose solution twice a day. The remaining cuprizone-treated mice received a gebr32a treatment (gebr32a 0.1 mg/kg (n=9) or gebr32a 0.3 mg/kg (n=9) in vehicle) twice a day from day 40-49. All animals were sacrificed at day 49. Brains were isolated at anteroposterior coordinates from −0.3 to −1.5 mm was cut in the midsagittal plane and used for slicing and immunohistochemistry against MBP.
FIG. 13. MBP expression in the dendate gyrus upon PDE4D inhibition. Thirty-six eleven-weeks-old male C57bl6 mice were either subjected to a cuprizone treatment to induce demyelination (n=27) or left without treatment (control; n=9) for six weeks (day 0-42). From 20 day 40 till day 49, the control mice and part of the cuprizone-treated mice (vehicle; n=9) received a vehicle treatment, receiving a s.c. injection with a 1% DMSO in 0.5% methylcellulose solution twice a day. […]

[3] = 0.1 mg/kg s.c. twice a day, day 40-49
[4] = 0.3 mg/kg s.c. twice a day, day 40-49, vs vehicle treated mice
[5] = 3 mg/kg s.c. twice a day, day 40-49
[6] = 3 mg/kg s.c. twice a day, day 40-49, vs vehicle-treated cuprizone mice

OC(CN1CCOCC1)Cn1ccc(-c2ccc(OC(F)F)c(OC3CCCC3)c2)n1 (centres unmarked) [Gebr32a]
Clinical score of EAE mice ([1]; 0.3 mg/kg s.c. twice a day): no effect
MBP expression in the corpus callosum (IHC) [2, 3]: not sufficient to significantly improve MPB expression
MBP expression in the dendate gyrus (IHC) [2, 3]: not sufficient to significantly improve MPB expression
MBP expression in the corpus callosum (IHC) [2, 4]: significantly increased MBP expression
MBP expression in the dendate gyrus (IHC) [2, 4]: significantly increased MBP expression
Remyelination-inducing dosage compared to roflumilast treatment ([2]; lower dosage, 0.3 mg/kg vs 3 mg/kg): 10 fold

O=C(Nc1c(Cl)cncc1Cl)c1ccc(OC(F)F)c(OCC2CC2)c1 [roflumilast]
Disease score of EAE mice, dose dependence ([1]; 0.3 mg/kg and 3 mg/kg s.c. twice a day): dose-dependent decrease in disease score
Relative mbp gene expression in the corpus callosum (qPCR) ([2]; 1 mg/kg and 3 mg/kg s.c. twice a day, day 40-49): not altered
G ratio in the corpus callosum (TEM) ([2]; 1 mg/kg s.c. twice a day, day 40-49): re-establishment of the G ratio to control levels
mbp mRNA expression in the corpus callosum (qPCR) compared to the control ([2]; 1 mg/kg s.c. twice a day, vs non-demyelinated control): reduced mbp mRNA expression
G ratio in the corpus callosum (TEM) [2, 5]: re-establishment of the G ratio to control levels
MBP expression in hippocampus CA1 and CA3 (IHC) [2, 5]: not in the cornu amonis 1 (CA1) or 3 (CA3)
MBP expression in the corpus callosum (IHC) [2, 6]: increased MBP expression
MBP expression in the dendate gyrus (IHC) [2, 6]: increased MBP expression
